Assay: Bulk and tapped density measurement by standard pharmaceutical methods
Assay type: physicochemical
Protocol: Density measurements were carried out using standard pharmaceutical methods for the measurement of bulk and tapped density. A comparison of the apparent density of the freshly dispensed or bulk powder to that of powder after settling is shown in Table 4.

Bulk Density (freshly dispensed or bulk powder): 0.55 g/mL
Tapped Density (powder after settling): 0.79 g/mL
SMILES: N[C@@H](Cc1c[nH]cn1)C(=O)O [L-Histidine]
